Test results taken from patent publication US7348332B2, “(3,4-dihydro-quinazolin-2-yl)-indan-1-yl-amines” (Hoffmann-La Rochse Inc., priority 2005, dated 2008).

Target: T1, recombinant human 5-HT5A receptor (Homo sapiens, UniProt P47898)
T1 construct: expressed in transfected cells; host or cells: HEK-EBNA (Human Embryonic Kidney-EBNA) cells, transient cDNA expression; membranes
Experiment: [3H]LSD radioligand binding assay, membranes from HEK-EBNA cells transiently expressing 5-HT5A receptors
Settings: [3H]LSD approximately 1 nM; HEK-EBNA cell membranes; SPA beads; 120 min at room temperature; Ki from IC50 by Cheng-Prussoff equation
Experimental: A [^3H]LSD radioligand binding assay was used to determine the affinity of the compounds for the recombinant human 5-HT5A receptor, in membranes from transiently (cDNA) expressed 5-HT5A receptors in Human Embryonic Kidney-EBNA (HEK-EBNA) cells. Assay buffer consisted of Tris (50 mM) buffer containing 1 mM EGTA, 10 mM MgCl2 (pH 7.4) and 10 μM pargyline. The binding assay was carried out in 96-well-plates in the presence of [^3H]LSD (approximately 1 nM), approximately 2 μg/well of membrane protein, and 0.5 mg of Ysi-poly-1-lysine SPA beads in a final volume of 200 μl of buffer. Non-specific binding was defined using methiothepin 2 μM. Compounds were tested at 10 concentrations. All assays were conducted in duplicate and repeated at least two times. Assay plates were incubated for 120 min at room temperature before centrifugation. Bound ligand was determined using a Packard Topcount scintillation counter. IC50 values were calculated using a non-linear curve fitting program and Ki values calculated using the Cheng-Prussoff equation.

T1 sequence (P47898 whole entry): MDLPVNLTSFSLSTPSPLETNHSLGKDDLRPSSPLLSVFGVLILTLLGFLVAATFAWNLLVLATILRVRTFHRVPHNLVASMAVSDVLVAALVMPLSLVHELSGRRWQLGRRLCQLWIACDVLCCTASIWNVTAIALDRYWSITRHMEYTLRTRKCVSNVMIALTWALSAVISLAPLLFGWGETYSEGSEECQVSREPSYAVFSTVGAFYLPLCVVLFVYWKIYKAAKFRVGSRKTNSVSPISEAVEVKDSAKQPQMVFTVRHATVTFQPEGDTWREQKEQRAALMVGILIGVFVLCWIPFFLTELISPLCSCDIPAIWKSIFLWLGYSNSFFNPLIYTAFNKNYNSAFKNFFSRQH

Row | Compound | Ki
1 | Clc1ccc(Cl)c(C2NC(NC3CCc4ccccc43)=Nc3ccccc32)c1 (stereo in doubt) [Example 20, [4-(2,5-Dichloro-phenyl)-3,4-dihydro-quinazolin-2-yl]-(R)-indan-1-yl-amine] | 550 nM
2 | Cc1noc(C)c1C1NC(N[C@@H]2CCc3ccccc32)=Nc2ccccc21 (stereo partly drawn) [Example 25, [4-(3,5-Dimethyl-isoxazol-4-yl)-3,4-dihydro-quinazolin-2-yl]-(R)-indan-1-yl-amine] | 863 nM
3 | Clc1ccc2c(c1)C(c1ccccc1Cl)NC(NC1CCc3ccccc31)=N2 (stereo in doubt) [Example 22, [6-Chloro-4-(2-chloro-phenyl)-3,4-dihydro-quinazolin-2-yl]-(R)-indan-1-yl-amine] | 655 nM
4 | Clc1cccc2c1CNC(NC1CCc3ccccc31)=N2 (centres unmarked) [Example 2, (5-Chloro-3,4-dihydro-quinazolin-2-yl)-indan-1-yl-amine] | 32 nM
5 | Clc1ccc2c(c1)C(c1ccccc1Cl)NC(NC1CCc3ccccc31)=N2 (stereo in doubt) [Example 21, [6-Chloro-4-(2-chloro-phenyl)-3,4-dihydro-quinazolin-2-yl]-(S)-indan-1-yl-amine] | 595 nM
6 | CC1NC(NC2CCc3ccccc32)=Nc2cc(Cl)c(Cl)cc21 (centres unmarked) [Example 10, (6,7-Dichloro-4-methyl-3,4-dihydro-quinazolin-2-yl)-indan-1-yl-amine] | 71 nM
7 | Cc1noc(C)c1C1NC(N[C@H]2CCc3ccccc32)=Nc2ccccc21 (stereo partly drawn) [Example 26, [4-(3,5-Dimethyl-isoxazol-4-yl)-3,4-dihydro-quinazolin-2-yl]-(S)-indan-1-yl-amine] | 1200 nM
8 | COc1ccc2c(c1)N=C(NC1CCc3ccccc31)NC2 (centres unmarked) [Example 15, Indan-1-yl-(7-methoxy-3,4-dihydro-quinazolin-2-yl)-amine] | 310 nM
9 | COc1ccc2c(c1)CNC(NC1CCc3ccccc31)=N2 (centres unmarked) [Example 11, Indan-1-yl-(6-methoxy-3,4-dihydro-quinazolin-2-yl)-amine] | 125 nM
10 | Fc1cccc2c1CNC(NC1CCc3ccccc31)=N2 (centres unmarked) [Example 6, (5-Fluoro-3,4-dihydro-quinazolin-2-yl)-indan-1-yl-amine] | 48 nM
11 | c1ccc2c(c1)CC[C@@H]2NC1=Nc2ccccc2C(c2ccsc2)N1 (stereo partly drawn) [Example 24, (S)-Indan-1-yl-(4-thiophen-3-yl-3,4-dihydro-quinazolin-2-yl)-amine] | 293 nM
12 | Cc1ccc2c(c1)CNC(NC1CCc3ccccc31)=N2 (centres unmarked) [Example 7, Indan-1-yl-(6-methyl-3,4-dihydro-quinazolin-2-yl)-amine] | 50 nM
13 | COc1cc2c(cc1OC)N=C(NC1CCc3ccccc31)NC2 (centres unmarked) [Example 16, (6,7-Dimethoxy-3,4-dihydro-quinazolin-2-yl)-indan-1-yl-amine] | 350 nM
14 | FC(F)(F)c1ccc2c(c1)N=C(NC1CCc3ccccc31)NC2 (centres unmarked) [Example 13, Indan-1-yl-(7-trifluoromethyl-3,4-dihydro-quinazolin-2-yl)-amine] | 260 nM
15 | Fc1ccc2c(c1)CNC(NC1CCc3ccccc31)=N2 (centres unmarked) [Example 4, (6-Fluoro-3,4-dihydro-quinazolin-2-yl)-indan-1-yl-amine] | 35 nM
16 | c1ccc(C2NC(NC3CCc4ccccc43)=Nc3ccccc32)cc1 (centres unmarked) [Example 14, Indan-1-yl-(4-phenyl-3,4-dihydro-quinazolin-2-yl)-amine] | 310 nM
17 | Clc1ccc2c(c1Cl)CNC(NC1CCc3ccccc31)=N2 (centres unmarked) [Example 5, (5,6-Dichloro-3,4-dihydro-quinazolin-2-yl)-indan-1-yl-amine] | 39 nM
18 | Cc1cccc2c1CNC(NC1CCc3ccccc31)=N2 (centres unmarked) [Example 8, Indan-1-yl-(5-methyl-3,4-dihydro-quinazolin-2-yl)-amine] | 55 nM
19 | Cc1cccc2c1N=C(NC1CCc3ccccc31)NC2 (centres unmarked) [Example 3, Indan-1-yl-(8-methyl-3,4-dihydro-quinazolin-2-yl)-amine] | 32 nM
20 | c1ccc2c(c1)CNC(N[C@@H]1CCc3ccccc31)=N2 [Example 1, (3,4-Dihydro-quinazolin-2-yl)-(R)-indan-1-yl-amine] | 25 nM
21 | CC1NC(NC2CCc3ccccc32)=Nc2ccccc21 (centres unmarked) [Example 9, Indan-1-yl-(4-methyl-3,4-dihydro-quinazolin-2-yl)-amine] | 80 nM
22 | Clc1ccc2c(c1)C(c1ccccc1)NC(NC1CCc3ccccc31)=N2 (centres unmarked) [Example 18, (6-Chloro-4-phenyl-3,4-dihydro-quinazolin-2-yl)-indan-1-yl-amine] | 410 nM
23 | Clc1ccc2c(c1)N=C(NC1CCc3ccccc31)NC2 (centres unmarked) [Example 12, (7-Chloro-3,4-dihydro-quinazolin-2-yl)-indan-1-yl-amine] | 174 nM
24 | Clc1ccc(Cl)c(C2NC(NC3CCc4ccccc43)=Nc3ccccc32)c1 (stereo in doubt) [Example 19, [4-(2,5-Dichloro-phenyl)-3,4-dihydro-quinazolin-2-yl]-(S)-indan-1-yl-amine] | 550 nM
25 | c1ccc2c(c1)CNC(N[C@H]1CCc3ccccc31)=N2 [Example 17, (3,4-Dihydro-quinazolin-2-yl)-(S)-indan-1-yl-amine] | 350 nM
26 | c1ccc2c(c1)CC[C@H]2NC1=Nc2ccccc2C(c2ccsc2)N1 (stereo partly drawn) [Example 23, (R)-Indan-1-yl-(4-thiophen-3-yl-3,4-dihydro-quinazolin-2-yl)-amine] | 133 nM
